In patent US20050143362A1 (priority 2003, published 2005):

Assays:
[1] = test system: hypogonadism in the adult male; test: Illustrative examples: danazol capsules given to hypogonadal adult men; assay type: in vivo; conditions: after one month
From the text: A person reports a lethargic and depressed mood. Blood tests show a hypogonadism in which total testosterone is borderline normal range but SHBG levels are higher than normal. Free testosterone levels are abnormally low and the patient is diagnosed as hypogonadal.
A person reports a general physical weakening and decreased libido. Blood tests show a high total testosterone level but SHBG levels are also in the very high range. Free testosterone levels are abnormally low and the patient is diagnosed as hypogonadal.

[2] = biological target: T1, sex hormone binding globulin (SHBG) (Homo sapiens, UniProt P04278); conditions: Pugeat et al. 1981; cited from earlier work
T1 sequence (P04278 30-402): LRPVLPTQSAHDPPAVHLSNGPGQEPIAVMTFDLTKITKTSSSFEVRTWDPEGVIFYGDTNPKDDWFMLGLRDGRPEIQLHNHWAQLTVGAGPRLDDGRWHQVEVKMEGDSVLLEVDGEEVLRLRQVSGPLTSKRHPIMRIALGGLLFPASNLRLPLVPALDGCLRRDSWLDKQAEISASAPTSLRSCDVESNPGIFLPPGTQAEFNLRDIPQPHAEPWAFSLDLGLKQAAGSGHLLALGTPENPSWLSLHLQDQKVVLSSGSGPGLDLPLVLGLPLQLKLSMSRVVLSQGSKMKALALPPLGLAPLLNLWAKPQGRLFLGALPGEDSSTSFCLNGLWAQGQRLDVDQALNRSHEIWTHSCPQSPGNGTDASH

[3] = biological target: T2, progesterone receptors (Homo sapiens, UniProt P06401); conditions: Zurlo et al. 1990; cited from earlier work
T2 sequence (P06401 1-933): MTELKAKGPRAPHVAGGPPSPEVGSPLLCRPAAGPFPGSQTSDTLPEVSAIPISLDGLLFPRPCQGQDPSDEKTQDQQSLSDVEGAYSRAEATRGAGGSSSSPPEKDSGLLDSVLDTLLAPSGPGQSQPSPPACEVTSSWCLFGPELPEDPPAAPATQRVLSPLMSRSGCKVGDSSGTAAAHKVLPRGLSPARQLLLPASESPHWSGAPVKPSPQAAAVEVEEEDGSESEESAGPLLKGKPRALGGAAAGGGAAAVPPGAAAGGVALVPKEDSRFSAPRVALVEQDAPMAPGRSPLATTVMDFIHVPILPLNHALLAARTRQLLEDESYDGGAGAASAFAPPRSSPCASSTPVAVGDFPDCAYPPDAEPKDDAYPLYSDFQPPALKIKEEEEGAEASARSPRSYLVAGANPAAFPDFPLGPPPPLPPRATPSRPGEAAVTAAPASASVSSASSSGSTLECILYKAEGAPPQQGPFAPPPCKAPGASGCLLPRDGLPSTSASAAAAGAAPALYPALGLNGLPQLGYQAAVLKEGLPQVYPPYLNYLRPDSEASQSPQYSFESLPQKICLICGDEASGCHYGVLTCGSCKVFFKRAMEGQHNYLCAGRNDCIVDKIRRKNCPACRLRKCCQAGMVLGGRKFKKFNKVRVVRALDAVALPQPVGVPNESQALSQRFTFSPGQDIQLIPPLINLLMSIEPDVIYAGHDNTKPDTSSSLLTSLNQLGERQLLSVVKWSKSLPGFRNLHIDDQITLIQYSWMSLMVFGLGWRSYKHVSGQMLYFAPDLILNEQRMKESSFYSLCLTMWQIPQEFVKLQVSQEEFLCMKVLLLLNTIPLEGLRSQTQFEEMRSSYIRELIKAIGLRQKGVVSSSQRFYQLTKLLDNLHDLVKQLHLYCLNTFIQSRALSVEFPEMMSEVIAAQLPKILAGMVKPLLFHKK

[4] = test system: serum gonadotropins; conditions: Gelfand et al. 1976; cited from earlier work
[5] = cited from earlier work
[6] = Example 1: person, one 25 milligram capsule three times daily
[7] = Example 2: person, one 25 milligram capsule twice a day

Structure (SMILES): C#C[C@]1(O)CC[C@H]2[C@@H]3CCC4=Cc5oncc5C[C@]4(C)[C@H]3CC[C@@]21C [danazol, 17α-pregn-4-en-20-yno[2,3-d]isoxazol-17-ol]
- SHBG level (blood test) [1, 6]: remained stable
- free testosterone (blood test) [1, 6]: increased
- total testosterone level (blood test) [1, 6]: remained stable
- vigor and mood reported by patient [1, 6]: greater vigor and an improved mood
- SHBG level (blood test) [1, 7]: lower levels
- free testosterone (blood test) [1, 7]: new higher level
- libido reported by patient [1, 7]: increased libido
- displacement of testosterone from SHBG [2]: competitive displacer of testosterone
- binding to progesterone receptors [3]: competitive binding
- serum gonadotropins [4]: dose-dependent reduction
- androgenic potential ([5]; Gelfand et al. 1976): markedly attenuated
- myogenic (anabolic) activity ([5]; Gelfand et al. 1976): mildly myogenic
- androgen-like activity ([5]; Potts et al. 1980): weak
- anabolic response ([5]; whole males, low dosages, Dmowski et al. 1971): increased and stable, long term anabolic response
